Assay: HILIC, Merck SeQuant ZIC-HILIC, 100 × 2.1 mm, 3.5 µm, 25 °C, 0.3 mL/min, estimated dead time 0.73 min; A: water + 0.1% formic acid, pH 3; B: acetonitrile + 0.1% formic acid, pH 3; gradient (min/%B) 0/95 1.5/95 13.5/40 15.5/40 29.7/25 33.5/25 34.5/95 41.5/95
Settings: stereoisomer not certain

| Compound | LC retention time [min] |
| --- | --- |
| Cn1c(=O)c2c([nH]c(=O)n2C)n(C)c1=O [1,3,7-trimethyluric acid] | 1.87 |
| Cn1c(=O)[nH]c2[nH]c(=O)n(C)c2c1=O [1,7-dimethyluric acid] | 3.78 |
| O=C(O)Cn1ccnc1 [1-Imidazoleacetic acid] | 7.7 |
| C[n+]1cccc(C(N)=O)c1 [1-Methylnicotinamide] | 8.28 |
| CC(O)CN (stereo unspecified) [1-amino-2-propanol] | 8.65 |
| Cn1c(=O)[nH]c2[nH]c(=O)[nH]c2c1=O [1-methyluric acid] | 4.66 |
| O=c1[nH]cccc1O [2,3-Dihydroxypyridine] | 4.47 |
| NC(CCCC(N)C(=O)O)C(=O)O (stereo unspecified) [2,6-diaminopimelic acid] | 11.1 |
| CC(=O)c1cnccn1 [2-Acetylpyrazine] | 0.96 |
| Nc1ccccc1C(=O)O [2-Aminobenzoic acid] | 1.24 |
| Nc1ccccc1O [2-Aminophenol] | 6 |
| O=c1[nH]c2ccccc2o1 [2-Benzoxazolinone] | 1.01 |
| CC1CCCN1 (stereo unspecified) [2-Methylpyrrolidine] | 6.72 |
| O=C1CCCCN1 [2-Piperidone] | 1.85 |
| O=C(O)Cc1ccccn1 [2-Pyridylacetic acid] | 4.67 |
| O=c1[nH]cnc2c1ncn2C1CC(O)C(CO)O1 (stereo unspecified) [2-deoxyinosine] | 4.69 |
| O=C(O)CNC(=O)c1ccco1 [2-furoylglycine] | 1.46 |
| NC(Cc1ccc(O)c(O)c1)C(=O)O (stereo unspecified) [3,4-dihydroxyphenylalanine] | 8.17 |
| OCCc1ccc(O)c(O)c1 [3,4-dihydroxyphenylethanol] | 2.27 |

| Compound | LC retention time [min] |
| --- | --- |
| Oc1cccnc1 [3-Hydroxypyridine] | 6.36 |
| O=C(O)Cc1c[nH]c2ccccc12 [3-Indoleacetic acid] | 1.26 |
| O=C(O)Cc1cccnc1 [3-Pyridylacetic acid] | 5.94 |
| O=C(O)[C@H]1NCCC1O (stereo partly specified) [3-hydroxyproline] | 8.12 |
| Cn1cncc1CC(N)C(=O)O (stereo unspecified) [3-methylhistidine] | 12 |
| Nc1ccc(O)cc1 [4-Aminophenol] | 8.1 |
| Nc1ccc(C(=O)O)c(O)c1 [4-Aminosalicylic acid] | 1.3 |
| NC(N)=NCCCC(=O)O [4-Guanidinobutanoic acid] | 7.51 |
| CC(CCC(=O)[O-])[N+](C)(C)C (stereo unspecified) [4-aminovaleric acid betaine] | 5.95 |
| Cc1ncc(CO)c(C(=O)O)c1O [4-pyridoxic acid] | 4.14 |
| C[N+](C)(C)CCCCC(=O)[O-] [5-Aminovaleric acid betaine] | 6.01 |
| NCC(=O)CCC(=O)O [5-aminolevulinic acid] | 8.57 |
| O=C(O)Cc1c[nH]c2ccc(O)cc12 [5-hydroxyindoleacetate] | 3.62 |
| NC(Cc1c[nH]c2ccc(O)cc12)C(=O)O (stereo unspecified) [5-hydroxytryptophan] | 7.58 |
| Cn1cnc2nc(N)[nH]c(=O)c21 [7-methylguanine] | 6.62 |
| Cn1cnc2[nH]c(=O)[nH]c(=O)c21 [7-methylxanthine] | 2.72 |
| Nc1nc2c([nH]c(=O)n2C2OC(CO)C(O)C2O)c(=O)[nH]1 (stereo unspecified) [8-hydroxyguanosine] | 6.1 |
| CC(=O)OCC[N+](C)(C)C [Acetylcholine] | 3.46 |
| CC(=O)NC(CCCNC(N)=O)C(=O)O (stereo unspecified) [Acetylcitrulline] | 5.09 |

| Compound | LC retention time [min] |
| --- | --- |
| Nc1ncnc2c1ncn2C1OC(COP(=O)(O)O)C(O)C1O (stereo unspecified) [Adenosine mono-phosphate] | 8.41 |
| CNCC(O)c1ccc(O)c(O)c1 (stereo unspecified) [Adrenaline] | 8.61 |
| NCCCCN=C(N)N [Agmatine] | 15.3 |
| CC(C(=O)[O-])[N+](C)(C)C (stereo unspecified) [Alanine betaine] | 7.32 |
| CC(N)C(=O)O (stereo unspecified) [Alanine] | 8.06 |
| CC(C)CC(NC(=O)C(C)N)C(=O)O (stereo unspecified) [Alanyl-leucine] | 6.54 |
| O=c1[nH]c(=O)c2cn[nH]c2[nH]1 [Alloxanthine] | 4.27 |
| [NH3+]CCCCCC(=O)[O-] [Aminocaproate] | 7.15 |
| CC1(C)SC2C(NC(=O)C(N)c3ccc(O)cc3)C(=O)N2C1C(=O)O (stereo unspecified) [Amoxicillin] | 6.82 |
| NC(=NCCCC(N)C(=O)O)NC(CC(=O)O)C(=O)O (stereo unspecified) [Argininosuccinic acid] | 11.3 |
| CC(NC(=O)C(Cc1ccccc1)NC(=O)C(N)CC(=O)O)C(=O)O (stereo not drawn) [Asp-Phe-Ala] | 6.71 |
| NC(=O)CC(N)C(=O)O (stereo unspecified) [Asparagine] | 8.67 |
| COC(=O)C(Cc1ccccc1)NC(=O)C(N)CC(=O)O (stereo unspecified) [Aspartame] | 5.89 |
| NC(COCc1ccccc1)C(=O)O (stereo unspecified) [Benzylserine] | 5.46 |
| CC(O)C(O)c1cnc2nc(N)[nH]c(=O)c2n1 (stereo unspecified) [Biopterin] | 6.01 |
| O=S(=O)(O)CCNC1CCCCC1 [CHES] | 5 |
| NCCc1cc(O)c(O)cc1O [Hydroxydopamine] | 9.19 |
| CNCC(O)c1ccc(O)c(OC)c1 (stereo unspecified) [Metanephrine] | 7.06 |

Results, then the molecule that gave them:

| LC retention time [min] | Compound |
| --- | --- |
| 6.41 | CCCCC(N)C(=O)O (racemic) [DL-Norleucine] |
| 13.1 | NCCC(=O)NC(Cc1cnc[nH]1)C(=O)O (stereo unspecified) [Carnosine] |
| 1.3 | CC(CCC(=O)O)C1CCC2C3C(O)CC4CC(O)CCC4(C)C3CCC12C (stereo unspecified) [Chenodeoxycholic acid] |
| 4.42 | O=C(C=Cc1ccc(O)c(O)c1)OC1CC(O)(C(=O)O)CC(O)C1O (stereo unspecified) [Chlorogenic acid] |
| 10.6 | C[N+](C)(C)CCOP(=O)(O)OP(=O)([O-])OCC1OC(n2ccc(N)nc2=O)C(O)C1O (stereo unspecified) [Citicholine] |
| 8.89 | NC(=O)NCCCC(N)C(=O)O (stereo unspecified) [Citrulline] |
| 5.16 | CN1C(=O)CCC1c1cccnc1 (stereo unspecified) [Cotinine] |
| 10.5 | NC(CCSCC(N)C(=O)O)C(=O)O (stereo unspecified) [Cystathionine] |
| 7.64 | NC(CSS(=O)(=O)O)C(=O)O (stereo unspecified) [Cysteine-S-sulfate] |
| 7.62 | NC(CS)C(=O)O (stereo unspecified) [Cysteine] |
| 10 | N[C@H]1C(O)O[C@H](COP(=O)(O)O)[C@@H](O)[C@@H]1O (stereo partly drawn) [D-glucosamine-6-phosphate] |
| 8.22 | OCCNCCO [Diethanolamine] |
| 4.02 | O=C1CC(C(=O)O)NC(=O)N1 (stereo unspecified) [Dihydroorotic acid] |
| 6.85 | CC1=NCCC(C(=O)O)N1 (stereo unspecified) [Ectoine] |
| 5.11 | OCC(O)C(O)CO (stereo unspecified) [Erythritol] |
| 4.67 | O=C(O)c1cc(O)c(O)c(O)c1 [Gallic acid] |
| 4.49 | O=C1OC(CO)C(O)C(O)C1O (stereo unspecified) [Gluconolactone] |
| 10.5 | NC1C(O)OC(CO)C(O)C1O (stereo unspecified) [Glucosamine] |
| 6.86 | OCC1OC(O)C(O)C(O)C1O (stereo unspecified) [Glucose] |
| 8.52 | NC(=O)CCC(N)C(=O)O (stereo unspecified) [Glutamine] |
| 8.52 | NC(N)=NCC(=O)O [Glycocyamine] |
| 9.29 | NCC(=O)NCC(=O)O [Glycyl-glycine] |
| 7.08 | CC(C)C(NC(=O)CN)C(=O)O (stereo unspecified) [Glycyl-valine] |
| 8.15 | Nc1nc2c(ncn2C2OC(COP(=O)(O)O)C(O)C2O)c(=O)[nH]1 (stereo unspecified) [Guanosine mono-phosphate] |
| 10.7 | O=S(=O)(O)CCN1CCN(CCO)CC1 [HEPES] |

| LC retention time [min] | Compound |
| --- | --- |
| 1.69 | OCCOCCOCCOCCOCCOCCO [Hexaethylene glycol] |
| 1.36 | O=C(O)CNC(=O)c1ccccc1 [Hippuric acid] |
| 14.4 | NCCc1cnc[nH]1 [Histamine] |
| 7.41 | NC(CCS)C(=O)O (stereo unspecified) [Homocysteine] |
| 8.29 | NC(CCO)C(=O)O (stereo unspecified) [Homoserine] |
| 6.93 | C[N+]1(C)CCCCC1C(=O)[O-] (stereo unspecified) [Homostachydrine] |
| 7.87 | NCCS(=O)O [Hypotaurine] |
| 1.46 | O=C(O)c1c[nH]c2ccccc12 [Indole-3-carboxylic acid] |
| 2.25 | O=C(O)c1ccncc1 [Isonicotinic acid] |
| 12.6 | Cn1cncc1CC(NC(=O)CCN)C(=O)O [L-Anserine] |
| 12.2 | NC(N)=NCCC[C@H](N)C(=O)O [L-Arginine] |
| 6.76 | CC[C@H](C)[C@H](N)C(=O)O [L-Isoleucine] |
| 7.58 | CCNC(=O)CC[C@H](N)C(=O)O [L-Theanine] |
| 7.89 | CS(=O)(=O)CCC(N)C(=O)O [L-methionine sulfone] |
| 12.5 | NCCCCC(N)C(=O)O (stereo unspecified) [Lysine] |
| 6.42 | O=S(=O)(O)CCN1CCOCC1 [MES] |
| 6.57 | OCC(O)C(O)C(O)C(O)CO (stereo unspecified) [Mannitol] |
| 8.84 | CN(C)C(=N)N=C(N)N [Metformin] |
| 8.59 | CS(=O)CCC(N)C(=O)O (stereo unspecified) [Methionine sulfoxide] |
| 1.05 | COC(=O)c1nccnc1N [Methyl 3-aminopyrazine-2-carboxylic acid] |
| 1.16 | COC(=O)c1cccnc1 [Methyl nicotinic acid] |
| 1.05 | Cc1ccccc1C(=O)NCC(=O)O [Methylhippurate] |
| 1.06 | COC(=O)c1ccccn1 [Methylpicolinate] |
| 4.81 | CSCC1OC(n2cnc3c(N)ncnc32)C(O)C1O (stereo unspecified) [Methylthioadenosine] |
| 7.59 | CC(=O)NCCCC[C@H]([NH3+])C(=O)[O-] [N6-Acetyl-L-lysine] |

Source: the RepoRT retention time repository (doi:10.1021/acs.analchem.7b00925)
